Experimental data taken from article PMC12751025, “α‑Aminoboronic Acid Moieties in Boro Dipeptides Modulate Proteasome Subunit Selectivity and Provide Access to Compounds with Potent Anticancer and Anti-Inflammatory Activity” (Journal of Medicinal Chemistry, 2025).

What was measured:
β5c subunit of human cCP = target: T1, β5c subunit of human cCP (Homo sapiens, UniProt P20618+P28074); assay: IC50 determination with fluorogenic substrate Ac-WLA-AMC; type: biochemical; settings: own assay
T1 construct: purchased Boston Biochem, Inc
Procedure: (§1) The measurements of the residual activity of control compounds were carried out at final compound concentrations of 1 μM in the assay buffer (50 mM Tris-HCl, 0.5 mM ethylenediaminetetraacetic acid (EDTA), pH 7.4). Stock solutions of the compounds were prepared in DMSO. To the 35 μL of solution of the compound in the buffer, 35 μL of 0.4 nM human iCP (South Bay Bio, San Jose, CA, USA) or human cCP (Boston Biochem, Inc., Cambridge, MA, USA) was added. For assays evaluating the activity of β2c and β2i, the buffer was modified by adding the proteasomal activator PA28β (Boston Biochem, Inc., Cambridge, MA, USA) at a final concentration of 6 nM. […] The substrates used were acetyl-Nle-Pro-Nle-Asp-7-amino-4-methylcoumarin (Ac-nLPnLD-AMC, Bachem, Bubendorf, Switzerland) for β1c, acetyl-Pro-Ala-Leu-7-amino-4-methylcoumarin (Ac-PAL-AMC, Boston Biochem, Inc., Cambridge, MA, USA) for β1i, acetyl-Arg-Leu-Arg-7-amino-4-methylcoumarin (Ac-RLR-AMC, Bachem, Bubendorf, Switzerland) for β2c and β2i, acetyl-Trp-Leu-Ala-7-amino-4-methylcoumarin (Ac-WLA-AMC, Bachem, Bubendorf, Switzerland) for β5c, and acetyl-Ala-Asn-Trp-7-amino-4-methylcoumarin (Ac-ANW-AMC, Bachem, Bubendorf, Switzerland) for β5i. Progress of the reaction was measured using a BioTek Synergy HT microplate reader, monitoring fluorescence at 460 nm (excitation at 360 nm) for 60 min at 37 °C. The initial linear ranges were used to calculate the reaction velocity and determine the residual activity.
(§2) The final assay mixtures contained 0.4 nM human iCP or cCP in assay buffer (50 mM Tris-HCl, 0.5 mM EDTA, pH 7.4, addition of PA28β for β2c and β2i subunits). […] After incubation at 37 °C for 30 min, the reaction was initiated by the addition of the substrate Ac-nLPnLD-AMC for β1c, Ac-PAL-AMC for β1i, Ac-RLR-AMC for β2c and β2i, Ac-WLA-AMC for β5c, and Ac-ANW-AMC for β5i. Fluorescence was monitored at 460 nm (excitation at 360 nm) for 60 min at 37 °C. The reaction progress was recorded and the initial linear phases were used to determine the velocity. The IC50 values were calculated using GraphPad Prism software (GraphPad Software, San Diego, CA, USA), and the results represent the mean values of at least three independent determinations.

β2c = settings: in parentheses in Table S2; SI reference list; read-out: IC50 β2c, previously published data; cited from earlier work
β5c = settings: in parentheses in Table S2; SI reference list; read-out: IC50 β5c, previously published data; cited from earlier work
β5i = settings: in parentheses in Table S2; SI reference list; read-out: IC50 β5i, previously published data; cited from earlier work
MM.1S = system: MM.1S; parameters: method as in previous findings; settings: reference number not given; ref previous findings; read-out: IC50 for the reduction of MM.1S viability; cited from earlier work
Cytotoxicity MTS assay = type: cell-based; settings: human, MM.1S multiple myeloma cells, 250 nM, 72 h (Figure S3), read-out: viable cells
Procedure: Cytotoxicity was determined using the MTS cell proliferation assay (CellTiter 96 AQueous One Solution Cell Proliferation Assay, Promega, Wisconsin, USA), which measures mitochondrial metabolic activity as a surrogate for cell viability. The assay was performed according to the manufacturer protocol. […] The cells were seeded in 96-well plates (15.000–30.000 cells/well). After 24 h incubation at 5% CO2 and 37 °C, the cells were treated either with DMSO (negative control) or solutions of the tested compounds in DMSO. After 24 or 72 h, MTS reagent was added. Cells were incubated for additional 2 h - 4 h, followed by the measurement of absorbance at 490 nm on the Tecan Spark microplate reader.

β1i = settings: in parentheses in Table S2; SI reference list; read-out: IC50 β1i, previously published data; cited from earlier work
β2c subunit of human cCP = target: T2, β2c subunit of human cCP (Homo sapiens, UniProt P49720+Q99436); assay: IC50 determination with fluorogenic substrate Ac-RLR-AMC (PA28β added); type: biochemical; settings: own assay
T2 construct: purchased Boston Biochem, Inc
Procedure: Stock solutions of the compounds were prepared in DMSO. To the 35 μL of solution of the compound in the buffer, 35 μL of 0.4 nM human iCP (South Bay Bio, San Jose, CA, USA) or human cCP (Boston Biochem, Inc., Cambridge, MA, USA) was added. For assays evaluating the activity of β2c and β2i, the buffer was modified by adding the proteasomal activator PA28β (Boston Biochem, Inc., Cambridge, MA, USA) at a final concentration of 6 nM. […] The substrates used were acetyl-Nle-Pro-Nle-Asp-7-amino-4-methylcoumarin (Ac-nLPnLD-AMC, Bachem, Bubendorf, Switzerland) for β1c, acetyl-Pro-Ala-Leu-7-amino-4-methylcoumarin (Ac-PAL-AMC, Boston Biochem, Inc., Cambridge, MA, USA) for β1i, acetyl-Arg-Leu-Arg-7-amino-4-methylcoumarin (Ac-RLR-AMC, Bachem, Bubendorf, Switzerland) for β2c and β2i, acetyl-Trp-Leu-Ala-7-amino-4-methylcoumarin (Ac-WLA-AMC, Bachem, Bubendorf, Switzerland) for β5c, and acetyl-Ala-Asn-Trp-7-amino-4-methylcoumarin (Ac-ANW-AMC, Bachem, Bubendorf, Switzerland) for β5i. Progress of the reaction was measured using a BioTek Synergy HT microplate reader, monitoring fluorescence at 460 nm (excitation at 360 nm) for 60 min at 37 °C. The initial linear ranges were used to calculate the reaction velocity and determine the residual activity.
as §2

β1i subunit of human iCP = β1i subunit of human iCP (Homo sapiens, UniProt P28065+P40306); assay: IC50 determination with subunit-specific fluorogenic substrate Ac-PAL-AMC; settings: IC50 β1i, own assay
Procedure: as §1, §2

β2i = settings: in parentheses in Table S2; SI reference list; read-out: IC50 β2i, previously published data; cited from earlier work
β1c = settings: in parentheses in Table S2; SI reference list; read-out: IC50 β1c, previously published data; cited from earlier work
β1c subunit of human cCP = target: T3, β1c subunit of human cCP (Homo sapiens, UniProt P28072+Q99436); assay: IC50 determination with subunit-specific fluorogenic substrate Ac-nLPnLD-AMC; type: biochemical; settings: own assay
T3 construct: purchased Boston Biochem, Inc
Procedure: as §1, §2

β5i subunit of human iCP = β5i subunit of human iCP (Homo sapiens, UniProt P20618+P28062); assay: IC50 determination with fluorogenic substrate Ac-ANW-AMC; settings: IC50 β5i, own assay
Procedure: as §1, §2

β2i subunit of human iCP = β2i subunit of human iCP (Homo sapiens, UniProt P40306+P49720); assay: IC50 determination with fluorogenic substrate Ac-RLR-AMC (PA28β added)
Procedure: as §1, §2

Question: For `O=C(N[C@@H](Cc1coc2ccccc12)B(O)O)[C@@H]1C[C@H]2CC[C@@H]1O2` [M3258], which IC50 (β5c subunit of human cCP) is on record?
Answer: 1230 ± 90 nM

Question: And the IC50 (β2c)?
Answer: > 30 µM

Question: What about the IC50 (β5c) of the same molecule?
Answer: 2520 nM

Question: And the IC50 (β5i)?
Answer: 4.1 nM

Question: And the IC50 (MM.1S)?
Answer: 367 nM

Question: What about the viability at 72 h, […] (Cytotoxicity MTS assay) of the same molecule?
Answer: 87%

Question: What about the IC50 (β1i) of the same molecule?
Answer: > 30 µM

Question: What about the IC50 (β2c subunit of human cCP) of the same molecule?
Answer: > 1000 nM

Question: What about the IC50 (β1i subunit of human iCP) of the same molecule?
Answer: > 1000 nM

Question: What about the IC50 (β2i) of the same molecule?
Answer: > 30 µM

Question: What about the IC50 (β1c) of the same molecule?
Answer: > 30 µM

Question: And the IC50 (β1c subunit of human cCP)?
Answer: > 1000 nM

Question: What about the IC50 (β5i subunit of human iCP) of the same molecule?
Answer: 7.4 ± 1 nM

Question: What about the IC50 (β2i subunit of human iCP) of the same molecule?
Answer: > 1000 nM
